Experimental data from US20100267561A1, “HERBICIDAL PYRIDAZINONE DERIVATIVES” (priority 2007, published 2010).

Tests used:
Experiment in all cases: Test B pre-/postemergence plant response
Assay type in all cases: in vivo
[1] = test system: Italian ryegrass (Lolium multiflorum); settings: for Ryegrass, Italian plant response rating: 8 g ai/ha
Method in brief: (§1)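 Visual scoring from 0 (no effect) to 100 (complete control) against untreated controls was done 13 to 15 days after greenhouse treatment. Chemicals were formulated in a surfactant-containing non-phytotoxic solvent and applied to soil preemergence or to 1- to 4-leaf (2-18 cm) plants postemergence.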

[2] = test system: Russian thistle (Salsola iberica); settings: Preemergence
Method in brief: as §1

[3] = test system: catchweed bedstraw (Galium aparine); settings: Preemergence
Method in brief: as §1

[4] = test system: cocklebur (Xanthium strumarium); settings: for Cocklebur plant response rating: 8 g ai/ha
Method in brief: as §1

[5] = test system: common (oilseed) sunflower (Helianthus annuus); settings: Preemergence
Method in brief: as §1

[6] = test system: common ragweed (Ambrosia elation); settings: for Ragweed plant response rating: 8 g ai/ha
Method in brief: as §1

[7] = test system: downy bromegrass (Bromus tectorum); settings: for Bromegrass, Downy plant response rating: 8 g ai/ha
Method in brief: as §1

[8] = test system: goosegrass (Eleusine indica); settings: for Goosegrass plant response rating: 8 g ai/ha
Method in brief: as §1

[9] = test system: kochia (Kochia scoparia); settings: for Plant response rating, Kochia: Postemergence
Method in brief: as §1

[10] = test system: large crabgrass (Digitaria sanguinalis); settings: for Crabgrass, Large plant response rating: 8 g ai/ha
Method in brief: as §1

[11] = test system: pigweed (Amaranthus retroflexus); settings: for Pigweed plant response rating: 8 g ai/ha
Method in brief: as §1

[12] = test system: soybean (Glycine max); settings: for Soybean plant response rating: 8 g ai/ha
Method in brief: as §1

[13] = test system: surinam grass (Brachiaria decumbens); settings: for Surinam Grass plant response rating: 8 g ai/ha
Method in brief: as §1

[14] = test system: woolly cupgrass (Eriochloa villosa); settings: for Cupgrass, Woolly plant response rating: 8 g ai/ha
Method in brief: as §1

[15] = Postemergence, 16 g ai/ha, scale 0 to 100
[16] = Postemergence, 31 g ai/ha, scale 0 to 100, 0 no effect, 100 complete control
[17] = Postemergence, 62 g ai/ha, scale 0 to 100, 0 no effect, 100 complete control
[18] = Preemergence, 16 g ai/ha, scale 0 to 100 (0 no effect, 100 complete control)
[19] = Preemergence, 31 g ai/ha, 0 to 100 scale, 0 no effect, 100 complete control
[20] = Preemergence, 62 g ai/ha, scale 0 to 100
[21] = 16 g ai/ha, scale 0 to 100 (0 no effect, 100 complete control)
[22] = 31 g ai/ha, 0 to 100 scale, 0 no effect, 100 complete control

## Cc1cc(-c2ccc(Cl)cc2)nn1-c1c(OS(C)(=O)=O)cnn(C)c1=O [Compound 36]
[1]; postemergence, 0-100 scale
  Ryegrass, Italian plant response rating: 10
[1]; [15]
  Plant response rating, Ryegrass, Italian: 30
[1]; [16]
  Plant response rating, Ryegrass, Italian: 65
[1]; [17]
  Plant response rating, Ryegrass, Italian: 95
[1]; [18]
  Plant response rating, Ryegrass, Italian: 98
[1]; [19]
  Plant response rating, Ryegrass, Italian: 100
[1]; [20]
  Plant response rating, Ryegrass, Italian: 100
[1]; Preemergence, scale 0 to 100
  Ryegrass, Italian plant response rating: 20
[2]; [21]
  Plant response rating, Russian Thistle: 0
[2]; 62 g ai/ha, scale 0 to 100
  Plant response rating, Russian Thistle: 80
[2]; 8 g ai/ha, scale 0 to 100
  Russian Thistle plant response rating: 0
[3]; [21]
  Plant response rating, Galium: 0
[3]; [22]
  Plant response rating, Galium: 0
[3]; 62 g ai/ha, scale 0 to 100
  Plant response rating, Galium: 0
[3]; 8 g ai/ha, scale 0 to 100
  Galium plant response rating: 0
[4]; postemergence, 0-100 scale
  Cocklebur plant response rating: 0
[4]; [15]
  Plant response rating, Cocklebur: 0
[4]; [16]
  Plant response rating, Cocklebur: 0
[4]; [17]
  Plant response rating, Cocklebur: 0
[4]; [18]
  Plant response rating, Cocklebur: 0
[4]; [19]
  Plant response rating, Cocklebur: 0
[4]; [20]
  Plant response rating, Cocklebur: 0
[4]; Preemergence, scale 0 to 100
  Cocklebur plant response rating: 0
[5]; [21]
  Plant response rating, Sunflower: 0
[5]; [22]
  Plant response rating, Sunflower: 0
[5]; 62 g ai/ha, scale 0 to 100
  Plant response rating, Sunflower: 0
[5]; 8 g ai/ha, scale 0 to 100
  Sunflower plant response rating: 0
[6]; postemergence, 0-100 scale
  Ragweed plant response rating: 0
[6]; [15]
  Plant response rating, Ragweed: 0
[6]; [16]
  Plant response rating, Ragweed: 0
[6]; [17]
  Plant response rating, Ragweed: 0
[6]; [18]
  Plant response rating, Ragweed: 0
[6]; [19]
  Plant response rating, Ragweed: 0
[6]; [20]
  Plant response rating, Ragweed: 0
[6]; Preemergence, scale 0 to 100
  Ragweed plant response rating: 0
[7]; postemergence, 0-100 scale
  Bromegrass, Downy plant response rating: 0
[7]; [15]
  Plant response rating, Bromegrass, Downy: 5
[7]; [16]
  Plant response rating, Bromegrass, Downy: 40
[7]; [17]
  Plant response rating, Bromegrass, Downy: 50
[7]; [18]
  Plant response rating, Bromegrass, Downy: 50
[7]; [19]
  Plant response rating, Bromegrass, Downy: 50
[7]; [20]
  Plant response rating, Bromegrass, Downy: 90
[7]; Preemergence, scale 0 to 100
  Bromegrass, Downy plant response rating: 0
[8]; postemergence, 0-100 scale
  Goosegrass plant response rating: 0
[8]; [15]
  Plant response rating, Goosegrass: 100
[8]; [16]
  Plant response rating, Goosegrass: 100
[8]; [17]
  Plant response rating, Goosegrass: 100
[8]; [18]
  Plant response rating, Goosegrass: 100
[8]; [19]
  Plant response rating, Goosegrass: 100
[8]; [20]
  Plant response rating, Goosegrass: 100
[8]; Preemergence, scale 0 to 100
  Goosegrass plant response rating: 80
[9]; 8 g ai/ha, postemergence, 0-100 scale
  Kochia plant response rating: 0
[9]; 16 g ai/ha, scale 0 to 100
  Plant response rating, Kochia: 0
[9]; 31 g ai/ha, scale 0 to 100, 0 no effect, 100 complete control
  Plant response rating, Kochia: 0
[9]; 62 g ai/ha, scale 0 to 100, 0 no effect, 100 complete control
  Plant response rating, Kochia: 0
[10]; postemergence, 0-100 scale
  Crabgrass, Large plant response rating: 50
[10]; [15]
  Plant response rating, Crabgrass, Large: 65
[10]; [16]
  Plant response rating, Crabgrass, Large: 90
[10]; [17]
  Plant response rating, Crabgrass, Large: 100
[10]; [18]
  Plant response rating, Crabgrass, Large: 98
[10]; [19]
  Plant response rating, Crabgrass, Large: 100
[10]; [20]
  Plant response rating, Crabgrass, Large: 100
[10]; Preemergence, scale 0 to 100
  Crabgrass, Large plant response rating: 98
[11]; postemergence, 0-100 scale
  Pigweed plant response rating: 0
[11]; [15]
  Plant response rating, Pigweed: 0
[11]; [16]
  Plant response rating, Pigweed: 0
[11]; [17]
  Plant response rating, Pigweed: 0
[11]; [18]
  Plant response rating, Pigweed: 0
[11]; [19]
  Plant response rating, Pigweed: 0
[11]; [20]
  Plant response rating, Pigweed: 0
[11]; Preemergence, scale 0 to 100
  Pigweed plant response rating: 0
[12]; postemergence, 0-100 scale
  Soybean plant response rating: 0
[12]; [15]
  Plant response rating, Soybean: 0
[12]; [17]
  Plant response rating, Soybean: 0
[12]; [18]
  Plant response rating, Soybean: 0
[12]; [19]
  Plant response rating, Soybean: 0
[12]; [20]
  Plant response rating, Soybean: 0
[12]; Preemergence, scale 0 to 100
  Soybean plant response rating: 0
[13]; postemergence, 0-100 scale
  Surinam Grass plant response rating: 70
[13]; [15]
  Plant response rating, Surinam Grass: 85
[13]; [17]
  Plant response rating, Surinam Grass: 100
[13]; [18]
  Plant response rating, Surinam Grass: 100
[13]; [19]
  Plant response rating, Surinam Grass: 100
[13]; [20]
  Plant response rating, Surinam Grass: 100
[13]; Preemergence, scale 0 to 100
  Surinam Grass plant response rating: 70
[14]; postemergence, 0-100 scale
  Cupgrass, Woolly plant response rating: 85
[14]; [15]
  Plant response rating, Cupgrass, Woolly: 90
[14]; [16]
  Plant response rating, Cupgrass, Woolly: 95
[14]; [17]
  Plant response rating, Cupgrass, Woolly: 95
[14]; [18]
  Plant response rating, Cupgrass, Woolly: 85
[14]; [19]
  Plant response rating, Cupgrass, Woolly: 98
[14]; [20]
  Plant response rating, Cupgrass, Woolly: 100
[14]; Preemergence, scale 0 to 100
  Cupgrass, Woolly plant response rating: 85
